Tests used:
[1] = system: RAW 264.7 macrophage cell line (LPS-stimulated NO production); assay: Nitric oxide inhibition: nitrite quantification with Griess reagent in LPS-stimulated macrophage cells; assay type: cell-based, mouse; conditions: nitrite in supernatant of LPS (100 ng/ml)-stimulated RAW 264.7 cells, 24 h, lowest tested concentration 25 μM
Text: The mouse BALB/c macrophage cell line, RAW 264.7 BCRC No. 60001 (identical to ATCC number TIB-71), was obtained from Bioresource Collection and Research Center, Taiwan. The cells were maintained according to the protocols being cultured in 50 cm^2 plastic flasks (Nunc, Roskilde, Denmark) with the medium renewed every 3 days. LPS (from Escherichia coli, serotype 0127:B8), trypan blue and all the other chemicals, unless otherwise specified, were purchased from Aldrich-Sigma Chemical Company (St. Louis, Mo., USA).
The cells were cultured with or without a pretreatment by the test compounds and resveratrol of 25, 50, 100, and up to 200 μM as already described. Each value is the mean±SEM of three determinations. *p<0.05, each value was compared with or without the LPS-stimulated group.
The production of NO was determined by measuring the accumulated level of nitrite in the culture supernatant with the Griess reagent in LPS-stimulated macrophage cells. A quantity of 100 μl of a sample aliquot were mixed with 100 μl of the Griess reagent (0.1% N-(1-naphthyl)ethylenediamine, 1% sulfanilamide, and 2.5% phosphoric acid) in a 96-well plate and then incubated at 25° C. for 10 min. The absorbance at 550 nm was measured with an ELISA reader (MR 700, Dynatech Laboratories, Alexandria, Va., USA). NaNO2 was used as the standard to calculate the nitrite concentration.

[2] = system: human umbilical vein endothelial cells (HUVECs) co-cultured with normal human dermal fibroblasts (NHDF); assay: Anti-angiogenesis: capillary-tube formation assay (Kurabo angiogenesis kit); assay type: cell-based; conditions: HUVEC tube formation inhibition, HUVEC/NHDF co-culture, 11 d, 1-100 μM
Description: Capillary-tube formation was assayed using the angiogenesis kits (Kurabo, Okayama, Japan) according to the manufacturer's instruction. Briefly, human umbilical vein endothelial cells (HUVECs) co-cultured with normal human dermal fibroblasts (NHDF), which a cultural kit originally developed by Kurabo Co. Ltd., Okayama, Japan, onto 24-well plate were incubated either with or without test compounds and resveratrol respectively at appropriate concentrations (1-100 μM) for 11 d (media replacement was performed at d 1, 4, 7, and 9). The cells were thereafter fixed with 70% cold ethanol, incubated with mouse antihuman CD31 antibody followed by incubation with an alkaline phosphatase conjugate goat antimouse antibody, and then stained with 5-bromo-4-chloro-3-indolyl phosphate/nitro blue tetrazolium to visualize tube network at d-11, respectively. In each assay, randomly selected five fields of view in each well were captured by digital camera under the light microscopy on ×40 magnification. The analysis of tube formation was then carried out by measuring total area and length of tubes per well using analytical software (by Kurabo).

[3] = system: λ-carrageenan-induced paw edema in Wistar rats; assay: In-vivo carrageenan-induced paw edema study; conditions: rat, 20 mg/kg i.p. single dose in CMC, 5 h after carrageenan
Description: In this study, X-carrageenan was used to stimulate the inflammation on the rear footpad of the rats. Male albino Wistar rats (183-218 g) 4 to 6 weeks old were housed and cared under the guidelines of the Institutional Animal Care and Use Committee at the National Defense Medical Center, Taiwan. The rats were assigned to groups. For each group, 3 rats were used and marked on the tails. one of them being the control. In order to induce inflammation, 50 μl of a 1% λ-carrageenan solution in normal saline was injected into the right hind paw subplantar tissue. The development of paw edema was measured plethysmographically (Basile 7140 plethysmometer, Ugo, Varese, Italy) and recorded prior to this administration. […] Before carrageenan treatment, the volume of each […] footpad was measured (V0). […] After the λ-carrageenan challenge, each paw volume (ml) was measured hourly up to 5 h. The percentage of paw edema and the inhibition of inflammation were calculated. Edema rate (E %) was calculated as follows: E%=(Vt-V0)/V0×100; V0: volume of hind paw before 1% λ-carrageenan administration; Vt: volume of hind paw after 1% carrageenan administration at t h. Percentage of inhibition (1%) was determined as follows: 1%(Ec-Et)/Ec×100; Ec: edema rate of control group; Et: edema rate of the respective test compound at t h. […]

CC[n+]1c(/C=C/c2ccc(OC)cc2O)sc2ccccc21 [Compound 3, N-Ethyl-2-[(E)-2-(2′-hydroxy-4′-methoxyphenyl)vinyl]benzothiazolium bromide]
IC50 [1]: < 25 µM | IC50 [2]: 31.2 ± 2 µM

CC[n+]1c(/C=C/c2cc(OC)c(O)c(OC)c2)sc2ccccc21 [Compound 5, N-Ethyl-2-[(E)-2-(3′,5′-dimethoxy-4′-hydroxyphenyl)vinyl]benzothiazolium bromide]
IC50 [1]: < 25 µM | IC50 [2]: 21.2 ± 1.6 µM

CC[n+]1c(/C=C/c2ccc(O)c(OC)c2)sc2ccccc21 [Compound 6, N-Ethyl-2-[(E)-2-(4′-hydroxy-3′-methoxyphenyl)vinyl]benzothiazolium bromide]
IC50 [1]: < 25 µM | IC50 [2]: 19.9 ± 2.3 µM

Oc1ccc(/C=C/c2cc(O)cc(O)c2)cc1 [Resveratrol (1), 3,5,4′-trihydroxy-trans-stilbene, reference compound]
IC50 ([1]; Mus musculus, RAW264.7): 40 µM | IC50 ([2]; Homo sapiens, 264 h): 47.7 ± 1.1 µM

N-Ethyl-2-[(E)-2-(3′,4′,5′-trimethoxyphenyl)vinyl]benzothiazolium bromide [Compound 4]
IC50 [1]: < 25 µM | IC50 [2]: 18.8 ± 1.3 µM | Percentage of inhibition of paw edema [3]: 69.5% | paw edema (increase of paw volume) ([3]; p<0.05): 0.21 ± 0.06 mL

— US20150353515A1, “Novel analogs of resveratrol” (priority 2014, published 2015)
